Results reported in patent US20110053897A1 (IRM LLC, priority 2009, published 2011).

Target: T1, Syk kinase (Homo sapiens, UniProt P43405)
T1 construct: purchased
Experiment: Syk kinase inhibition, Caliper LabChip off-chip mobility-shift kinase assay
Format: biochemical
Details: Caliper LabChip assay; read-out: Syk Enzyme IC50
In short: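 Purified Syk pre-incubated 15 min with compound in 100 mM HEPES pH 7.5, 1 mM DTT, 10 mM MgCl2 or MnCl2, 0.002% Brij-35, then 1.5 μM fluorescein peptide and ATP at apparent KM added; 1–1.5 h at room temperature, 4% DMSO, EDTA stop. Microfluidic mobility-shift product/substrate conversion gave % inhibition; IC50 from 12-point series (10–0.00003 μM) by 4-parameter fit.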

IC50 | SMILES
67 nM | CC1(Cn2ccc3cc(-c4cnc(N)nc4)nc(NC4COC4)c3c2=O)COC1 [compound 773, 6-(2-Aminopyrimidin-5-yl)-2-((3-methyloxetan-3-yl)methyl)-8-(oxetan-3-ylamino)-2,7-naphthyridin-1(2H)-one]
34 nM | Nc1ncc(-c2cc3ccn(C[C@H](O)CO)c(=O)c3c(NC3CCC3)n2)cn1 [compound 774]
10 nM | O=c1c2c(NC3CCCC3)nc(Nc3cnccn3)cc2ccn1C[C@H](O)CO [compound 775]
18 nM | Nc1ncc(-c2cc3ccn(C[C@H](O)CO)c(=O)c3c(NC3CCCC3)n2)cn1 [compound 776]
137 nM | [2H]C([2H])([2H])n1ccc2cc(Nc3cc(C)c(Cl)cn3)nc(NC(C)(C)CO)c2c1=O [compound 777]
413 nM | CCn1ccc2cc(Nc3cc(C)ccn3)nc(NCC(O)C(F)(F)F)c2c1=O (stereo not drawn) [compound 778]
145 nM | CCn1ccc2cc(Nc3cnccn3)nc(NCC(O)C(F)(F)F)c2c1=O (stereo not drawn) [compound 779, 2-ethyl-6-(pyrazin-2-ylamino)-8-((3,3,3-trifluoro-2-hydroxypropyl)amino)-2,7-naphthyridin-1(2H)-one]
862 nM | CCn1ccc2cc(Nc3cc(C)ccn3)nc(NCCC(F)(F)F)c2c1=O [compound 780]
299 nM | CCn1ccc2cc(Nc3cnccn3)nc(NCCC(F)(F)F)c2c1=O [compound 781]
217 nM | CCn1ccc2cc(Nc3cc(C)ccn3)nc(NC(C)(C)CCO)c2c1=O [compound 782]
179 nM | CCn1ccc2cc(Nc3cnccn3)nc(NC(C)(C)CCO)c2c1=O [compound 783]
144 nM | Cn1cc(Cl)c2cc(Nc3cnccn3)nc(N[C@H]3CC[C@@H](O)CC3)c2c1=O [compound 785]
71 nM | [2H]C([2H])([2H])n1ccc2cc(Nc3cc(Cl)ccn3)nc(NC(C)(C)CO)c2c1=O [compound 786]
324 nM | CCn1ccc2cc(Nc3cnccn3)nc(NC3(CO)CCCC3)c2c1=O [compound 788]
88 nM | CCn1ccc2cc(Nc3cc(C)ccn3)nc(N[C@@H]3CC[C@@H](CO)C3)c2c1=O [compound 790]
58 nM | CCn1ccc2cc(Nc3cnccn3)nc(N[C@@H]3CC[C@@H](CO)C3)c2c1=O [compound 791]
33 nM | CCn1ccc2cc(Nc3cc(C)ccn3)nc(N[C@H]3CC[C@@H](CO)C3)c2c1=O [compound 792]
18 nM | CCn1ccc2cc(Nc3cnccn3)nc(N[C@H]3CC[C@@H](CO)C3)c2c1=O [compound 793]
94 nM | CCn1ccc2cc(Nc3cc(C)ccn3)nc(N[C@@H]3CC[C@H](CO)C3)c2c1=O [compound 794]
51 nM | CCn1ccc2cc(Nc3cnccn3)nc(N[C@@H]3CC[C@H](CO)C3)c2c1=O [compound 795]
106 nM | CCn1ccc2cc(Nc3cnccn3)nc(NC3(CO)CC3)c2c1=O [compound 797]
128 nM | Cn1ccc2cc(Nc3nccc(O)n3)nc(N[C@H]3CC[C@@H](O)CC3)c2c1=O [compound 798]
29 nM | Cn1ccc2cc(Nc3nccc(O)n3)nc(N[C@H]3CC[C@H](O)CC3)c2c1=O [compound 799]
9 nM | Cn1ccc2cc(Nc3nccc(O)n3)nc(NC3CCC3)c2c1=O [compound 800]
1900 nM | CCn1ccc2cc(Nc3cc(C)ccn3)nc(N)c2c1=O [compound 801]
1180 nM | CCn1ccc2cc(Nc3cnccn3)nc(N)c2c1=O [compound 802]

IC50 | SMILES
307 nM | CCn1ccc2cc(Nc3nccc(O)n3)nc(N)c2c1=O [compound 803]
194 nM | Cn1ccc2cc(Nc3nccc(O)n3)nc(Nc3ccc(C(N)=O)cc3)c2c1=O [compound 804]
752 nM | Cn1ccc2cc(Nc3nccc(O)n3)nc(Nc3ccc(C(=O)N4CCOCC4)cc3)c2c1=O [compound 805]
568 nM | CCn1ccc2cc(Nc3cc(C)ccn3)nc(N[C@H](CO)C(C)(C)C)c2c1=O [compound 806]
216 nM | CCn1ccc2cc(Nc3cnccn3)nc(N[C@H](CO)C(C)(C)C)c2c1=O [compound 807]
81 nM | CCn1ccc2cc(Nc3cc(C)ccn3)nc(NC(C)(CO)CO)c2c1=O [compound 808]
153 nM | CCn1ccc2cc(Nc3cnccn3)nc(NC(C)(CO)CO)c2c1=O [compound 809]
651 nM | Nc1nc(Nc2cnccn2)cc2ccn(CCO)c(=O)c12 [compound 811]
359 nM | Nc1nc(Nc2nccc(O)n2)cc2ccn(CCO)c(=O)c12 [compound 812]
1050 nM | Cc1ccnc(Nc2cc3ccn(CCO)c(=O)c3c(N)n2)c1 [compound 813]
390 nM | Cc1ccnc(Nc2cc3ccn(CCO)c(=O)c3c(NCC(C)(C)C)n2)c1 [compound 814]
117 nM | Cc1ccnc(Nc2cc3ccn(CCO)c(=O)c3c(NCC(F)F)n2)c1 [compound 815]
108 nM | Cc1ccnc(Nc2cc3ccn(CCO)c(=O)c3c(NC3CC3)n2)c1 [compound 817]
27 nM | O=c1c2c(NC3CC3)nc(Nc3cnccn3)cc2ccn1CCO [compound 818]
62 nM | Cc1ccnc(Nc2cc3ccn(C(C)C)c(=O)c3c(NC(C)(C)CO)n2)c1 [compound 819]
84 nM | CC(C)n1ccc2cc(Nc3cnccn3)nc(NC(C)(C)CO)c2c1=O [compound 820]
272 nM | Cc1ccnc(Nc2cc3ccn(C(C)C)c(=O)c3c(NC(C)(C)C)n2)c1 [compound 821]
165 nM | CC(C)n1ccc2cc(Nc3cnccn3)nc(NC(C)(C)C)c2c1=O [compound 822]
682 nM | CC(C)(C)Nc1nc(Nc2cnccn2)cc2c(Cl)cn(CCO)c(=O)c12 [compound 823]
18 nM | [2H]C([2H])([2H])n1ccc2cc(Nc3cnccn3)nc(NC3CC3)c2c1=O [compound 824]
22 nM | O=c1c2c(NCC(F)(F)F)nc(Nc3cnccn3)cc2ccn1CCO [compound 825]
25 nM | CC(C)(C)Nc1nc(Nc2nccc(O)n2)cc2ccn(CCO)c(=O)c12 [compound 826]
12 nM | CCn1ccc2cc(Nc3cnccn3)nc(N[C@H]3CC[C@H](CO)C3)c2c1=O [compound 827]
72 nM | CC(C)(C)Nc1nc(Nc2cc(-c3cccnc3)ccn2)cc2ccn(CCO)c(=O)c12 [compound 828]
271 nM | CC(C)(C)Nc1nc(Nc2cc(-c3ccccc3)ccn2)cc2ccn(CCO)c(=O)c12 [compound 829]
103 nM | Cn1cc(-c2ccnc(Nc3cc4ccn(CCO)c(=O)c4c(NC(C)(C)C)n3)c2)cn1 [compound 830]

IC50 | SMILES
213 nM | CCn1ccc2cc(Nc3cnccn3)nc(Nc3ccc(C(=O)NCCO)cc3)c2c1=O [compound 831]
1130 nM | CCn1ccc2cc(Nc3cnccn3)nc(Nc3ccc(C(=O)N4CCC(O)CC4)cc3)c2c1=O [compound 832]
263 nM | CCn1ccc2cc(Nc3cnccn3)nc(Nc3ccc(C(=O)N4CCC(O)C4)cc3)c2c1=O (stereo not drawn) [compound 833]
126 nM | CCn1ccc2cc(Nc3cc(C)ccn3)nc(Nc3ccc(C(=O)NCCO)cc3)c2c1=O [compound 834]
131 nM | CCn1ccc2cc(Nc3cc(C)ccn3)nc(Nc3ccc(C(=O)N4CCC(O)CC4)cc3)c2c1=O [compound 835]
119 nM | CCn1ccc2cc(Nc3cc(C)ccn3)nc(Nc3ccc(C(=O)N4CCC(O)C4)cc3)c2c1=O (stereo not drawn) [compound 836]
1060 nM | CC(C)(C)Nc1nc(Nc2cnccn2)c(Cl)c2ccn(CCO)c(=O)c12 [compound 837]
17 nM | CC1(Nc2nc(Nc3cnccn3)cc3ccn(CCO)c(=O)c23)CC1 [compound 838]
8 nM | CC1(Nc2nc(Nc3cnccn3)cc3cc[nH]c(=O)c23)CC1 [compound 839]
117 nM | CC(C)(C)Nc1nc(Nc2cc(-c3cn[nH]c3)ccn2)cc2ccn(CCO)c(=O)c12 [compound 840]
291 nM | CC(C)(C)Nc1nc(Nc2cc(-c3ccccn3)ccn2)cc2ccn(CCO)c(=O)c12 [compound 841]
51 nM | CC(C)(C)Nc1nc(Nc2cc(-c3ccncc3)ccn2)cc2ccn(CCO)c(=O)c12 [compound 842]
82 nM | CC(C)(C)Nc1nc(Nc2cc(-c3nc(CO)cs3)ccn2)cc2ccn(CCO)c(=O)c12 [compound 843]
766 nM | CC(C)(C)Nc1nc(Nc2cc(N3CCCC(CO)C3)ccn2)cc2ccn(CCO)c(=O)c12 (stereo not drawn) [compound 845]
216 nM | CC(C)(C)Nc1nc(Nc2cc(N3CCC(O)CC3)ccn2)cc2ccn(CCO)c(=O)c12 [compound 846]
500 nM | CC(C)(C)Nc1nc(Nc2cc(N3CCC(CO)CC3)ccn2)cc2ccn(CCO)c(=O)c12 [compound 847]
615 nM | CC(C)(C)Nc1nc(Nc2cc(N3CCCC(O)C3)ccn2)cc2ccn(CCO)c(=O)c12 (stereo not drawn) [compound 848]
102 nM | CC(C)(C)Nc1nc(Nc2cc(-c3cnn(CC(N)=O)c3)ccn2)cc2ccn(CCO)c(=O)c12 [compound 849]
559 nM | CC(C)(C)Nc1nc(Nc2cc(-c3ccc4cn[nH]c4c3)ccn2)cc2ccn(CCO)c(=O)c12 [compound 850]
222 nM | CC(C)(C)Nc1nc(Nc2cc(-c3ccc4[nH]ncc4c3)ccn2)cc2ccn(CCO)c(=O)c12 [compound 851]
300 nM | CC(C)Nc1nc(Nc2cc(N3CCC(O)CC3)ccn2)cc2ccn(CCO)c(=O)c12 [compound 852]
111 nM | Cc1cnccc1-c1ccnc(Nc2cc3ccn(CCO)c(=O)c3c(NC(C)(C)C)n2)c1 [compound 853]
64 nM | Cc1cc(-c2ccnc(Nc3cc4ccn(CCO)c(=O)c4c(NC(C)(C)C)n3)c2)ccn1 [compound 854]
244 nM | Cc1[nH]ncc1-c1ccnc(Nc2cc3ccn(CCO)c(=O)c3c(NC(C)(C)C)n2)c1 [compound 855]
393 nM | CC(C)(C)Nc1nc(Nc2cc(C3(C(=O)O)CC3)ccn2)cc2ccn(CCO)c(=O)c12 [compound 856]
4 nM | CC(C)(C)Nc1nc(Nc2cc(CCO)ccn2)cc2ccn(CCO)c(=O)c12 [compound 857]
